Molecules are shown by their SMILES. “Also recorded” adds a separate entry of the source. Like-named read-outs stand apart in the source and are kept apart here.

A short description of data set [1]: pKa determination. Format: physicochemical.
In data set [2] the target is T1, F508del-CFTR (Homo sapiens, UniProt P13569, DEL508-508). In words: Membrane potential optical (FLIPR) assay for F508del-CFTR modulators. Format: cell-based. Further details: expressed in transfected cells. The text has this: The assay utilizes fluorescent voltage sensing dyes to measure changes in membrane potential using a fluorescent plate reader (e.g., FLIPR III, Molecular Devices, Inc.) as a readout for increase in functional F508del in NIH 3T3 cells. The driving force for the response is the creation of a chloride ion gradient in conjunction with channel activation and concurrent with compound treatment by a single liquid addition step after the cells have previously been loaded with a voltage sensing dye.
To identify modulators of F508del, a fluorescence based HTS assay format was developed. This HTS assay utilizes fluorescent voltage sensing dyes to measure changes in membrane potential on the FLIPR III as a measurement for increase in gating (conductance) of F508del NIH 3T3 cells. The driving force for the response is the creation of a chloride ion gradient in conjunction with channel activation and concurrent with compound treatment by a single liquid addition step after the cells have previously been loaded with a voltage sensing dye.
(in mM) NaCl 160, KCl 4.5, CaCl2) 2, MgCl2 1, HEPES 10, pH 7.4 with NaOH, Glucose 10.
Chloride salts in Bath Solution #1 (above) are substituted with gluconate salts.
NIH3T3 mouse fibroblasts stably expressing F508del are used for optical measurements of membrane potential. The cells are maintained at 37° C. in 5% CO2 and 90% humidity in Dulbecco's modified Eagle's medium supplemented with 2 mM glutamine, 10% fetal bovine serum, 1×NEAA, β-ME, 1× pen/strep, and 25 mM HEPES in 175 cm^2 culture flasks. For all optical assays, the cells were seeded at 12,000 cells/well in 384-well matrigel-coated plates and cultured for 18-24 hrs at 37° C. for the potentiator assay. For the correction assays, the cells are cultured at 37° C. with and without compounds for 18-24 hours.

The target of data set [3] is T1, F508del-CFTR. Nature of the data set: Ussing chamber assay, chloride transport in HBE cells. It is filed as cell-based. Set-up: CF-HBE were isolated from patients homozygous for F508del; endogenous in cells; host or cells: primary CF human bronchial epithelial cells (F508del/F508del-HBE). As for the experimental part:
Using chamber experiments were performed on polarized airway epithelial cells expressing F508del to further characterize the F508del modulators identified in the optical assays. Non-CF and CF airway epithelia were isolated from bronchial tissue, cultured as previously described (Galietta, L. J. V., Lantero, S., Gazzolo, A., Sacco, O., Romano, L., Rossi, G. A., & Zegarra-Moran, O. (1998) In Vitro Cell. Dev. Biol. 34, 478-481), and plated onto Costar® Snapwell™ filters that were precoated with NIH3T3-conditioned media. After four days the apical media was removed and the cells were grown at an air liquid interface for >14 days prior to use. […] CF-HBE were isolated from patients homozygous for F508del or compound heterozygous for F508del with a different disease causing mutation on the other allele.
HBE grown on Costar® Snapwell™ cell culture inserts were mounted in an Using chamber (Physiologic Instruments, Inc., San Diego, Calif.), and the transepithelial resistance and short-circuit current in the presence of a basolateral to apical Cl^− gradient (ISC) were measured using a voltage-clamp system (Department of Bioengineering, University of Iowa, IA). Briefly, HBE were examined under voltage-clamp recording conditions (Vhold=0 mV) at 37° C. The basolateral solution contained (in mM) 145 NaCl, 0.83 K2HPO4, 3.3 KH2PO4, 1.2 MgCl2, 1.2 CaCl2, 10 Glucose, 10 HEPES (pH adjusted to 7.35 with NaOH) and the apical solution contained (in mM) 145 NaGluconate, 1.2 MgCl2, 1.2 CaCl2), 10 glucose, 10 HEPES (pH adjusted to 7.35 with NaOH).
Typical protocol utilized a basolateral to apical membrane Cl^− concentration gradient. To set up this gradient, normal ringers was used on the basolateral membrane, whereas apical NaCl was replaced by equimolar sodium gluconate (titrated to pH 7.4 with NaOH) to give a large Cl^− concentration gradient across the epithelium. Modulators were added either to the basolateral side […] to assay or to the apical side during the assay. Forskolin (10 μM) was added to the apical side during the assay to stimulate CFTR-mediated Cl^− transport.

The target of data set [4] is T1, F508del-CFTR. Nature of the data set: F508del-CFTR processing and trafficking in vitro (170 to 180 kDa band). Format: cell-based. Further details: CF-HBE were isolated from patients homozygous for F508del; endogenous in cells; host or cells: primary CF human bronchial epithelial cells (F508del/F508del-HBE). The text has this: Processing and trafficking of F508del-CFTR was directly monitored by the appearance of a 170 to 180 kDa band.

T1 sequence (P13569 with tags, fused parts or gaps DEL508-508): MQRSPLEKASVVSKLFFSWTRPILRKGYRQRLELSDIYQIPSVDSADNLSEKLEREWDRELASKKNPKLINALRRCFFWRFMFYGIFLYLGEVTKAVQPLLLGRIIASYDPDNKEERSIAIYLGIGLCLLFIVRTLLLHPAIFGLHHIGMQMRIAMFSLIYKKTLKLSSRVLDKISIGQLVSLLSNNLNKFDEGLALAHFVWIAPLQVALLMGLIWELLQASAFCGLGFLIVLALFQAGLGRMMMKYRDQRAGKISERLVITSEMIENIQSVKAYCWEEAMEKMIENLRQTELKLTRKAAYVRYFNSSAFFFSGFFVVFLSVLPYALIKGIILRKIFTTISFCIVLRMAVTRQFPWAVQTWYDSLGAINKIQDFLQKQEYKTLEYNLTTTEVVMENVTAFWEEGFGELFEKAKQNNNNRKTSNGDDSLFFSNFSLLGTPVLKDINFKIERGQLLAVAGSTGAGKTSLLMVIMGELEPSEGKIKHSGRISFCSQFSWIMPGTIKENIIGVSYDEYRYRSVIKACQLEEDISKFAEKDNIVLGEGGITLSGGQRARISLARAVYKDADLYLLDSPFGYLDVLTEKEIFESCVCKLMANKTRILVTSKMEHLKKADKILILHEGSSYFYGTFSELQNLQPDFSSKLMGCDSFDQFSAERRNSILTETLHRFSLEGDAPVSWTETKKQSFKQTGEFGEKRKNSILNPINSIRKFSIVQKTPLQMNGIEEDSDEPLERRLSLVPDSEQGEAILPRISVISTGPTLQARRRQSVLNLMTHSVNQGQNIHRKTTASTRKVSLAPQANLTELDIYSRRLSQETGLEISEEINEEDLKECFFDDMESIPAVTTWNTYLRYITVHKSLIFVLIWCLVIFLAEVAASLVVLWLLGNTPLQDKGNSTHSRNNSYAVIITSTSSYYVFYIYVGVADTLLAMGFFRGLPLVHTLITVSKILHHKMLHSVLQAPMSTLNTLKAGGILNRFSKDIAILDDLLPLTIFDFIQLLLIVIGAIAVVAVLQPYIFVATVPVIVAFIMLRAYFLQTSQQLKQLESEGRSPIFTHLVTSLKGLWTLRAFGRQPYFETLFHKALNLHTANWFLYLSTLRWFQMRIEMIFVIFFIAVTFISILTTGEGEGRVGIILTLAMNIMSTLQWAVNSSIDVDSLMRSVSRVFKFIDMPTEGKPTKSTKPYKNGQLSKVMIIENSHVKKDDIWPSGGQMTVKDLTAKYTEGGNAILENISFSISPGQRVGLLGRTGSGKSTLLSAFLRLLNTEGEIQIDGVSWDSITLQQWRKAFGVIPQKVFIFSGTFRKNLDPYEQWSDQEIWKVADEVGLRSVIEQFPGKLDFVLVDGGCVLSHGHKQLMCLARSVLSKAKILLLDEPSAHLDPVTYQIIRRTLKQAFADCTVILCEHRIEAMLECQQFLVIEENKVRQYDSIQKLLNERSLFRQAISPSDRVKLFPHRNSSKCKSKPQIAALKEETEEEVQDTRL

The pKa is the pH at which an ionisable group is half protonated. Lower therefore signals a stronger acid or weaker base. For orientation: EC50 means the concentration that produces a half-maximal response. Consider `C[C@@H]1CN(c2nc(-n3ccc(OCCC4(C(F)(F)F)CC4)n3)ccc2C(=O)NS(=O)(=O)c2ccccc2)C(C)(C)C1` [Compound I, N-(benzenesulfonyl)-6-[3-[2-[1-(trifluoromethyl)cyclopropyl]ethoxy]pyrazol-1-yl]-2-[(4S)-2,2,4-trimethylpyrrolidin-1-yl]pyridine-3-carboxamide], for which the pKa in data set [1] came to 4.95 ± 0.06. Besides, the EC50 in data set [2] (CFTR Activity, Table 120, read-out: CFTRdF508 EC50) was < 100 nM. Moreover, the 50% effective concentration (EC50) in data set [2] (F508del NIH 3T3 cells, membrane potential HTS assay, read-out: EC50) is < 3000 nM. Also, in data set [2] (NIH3T3, F508del NIH 3T3 cells, relative to Compound II, read-out: % Efficacy relative to Compound II), the Emax is ≥ 100%. In addition, in data set [3] (F508del/F508del-HBE cells), the chloride transport result is reported as “enhanced chloride transport” and the “effect on chloride transport together with Compound II” value is recorded as “additive to the effect of Compound II”. In data set [4] (F508del/F508del-HBE cells, 16 to 24 hours, 1 μM Compound I alone), the “increase in steady-state levels, fold of untreated levels” value is 6.5 fold. For the same compound, in data set [4] (in vitro), the “processing and trafficking of F508del-CFTR” value was “improved the processing and trafficking of F508del-CFTR; also recorded: facilitates the processing and trafficking of F508del-CFTR”.
For `CC(C)(C)c1cc(C(C)(C)C)c(NC(=O)c2c[nH]c3ccccc3c2=O)cc1O` [Compound III, N-(5-hydroxy-2,4-di-tert-butyl-phenyl)-4-oxo-1H-quinoline-3-carboxamide, reference compound], the “potentiation of F508del-CFTR delivered to the cell surface by Compound I alone or in combination with Compound II” value in data set [3] (HBE cells) is on record as “potentiated”.

(Values after US10654829B2, “Crystalline forms and compositions of CFTR modulators” (Vertex Pharmaceuticals Incorporated, priority 2017, dated 2020).)
